Measured values reported in article PMC6934184, “Selective DNA-PKcs inhibition extends the therapeutic index of localized radiotherapy and chemotherapy” (The Journal of Clinical Investigation, 2019).

Biological target: T1, MAP3K10 (MLK2) (Homo sapiens, UniProt Q02779)
T1 construct: purchased Thermo Fisher Scientific (Life Technologies) SelectScreen
Assay: SelectScreen LanthaScreen
Type: binding
Conditions: read-out: % displacement
In short: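 NU5455 was profiled across the SelectScreen Broad panel of kinase activity and binding assays. Z'LYTE reactions such as CSF1R ran at apparent Km ATP, while the Adapta CAMK1 assay used ATP listed as 10. Values are given as percent.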

T1 sequence (Q02779 whole entry): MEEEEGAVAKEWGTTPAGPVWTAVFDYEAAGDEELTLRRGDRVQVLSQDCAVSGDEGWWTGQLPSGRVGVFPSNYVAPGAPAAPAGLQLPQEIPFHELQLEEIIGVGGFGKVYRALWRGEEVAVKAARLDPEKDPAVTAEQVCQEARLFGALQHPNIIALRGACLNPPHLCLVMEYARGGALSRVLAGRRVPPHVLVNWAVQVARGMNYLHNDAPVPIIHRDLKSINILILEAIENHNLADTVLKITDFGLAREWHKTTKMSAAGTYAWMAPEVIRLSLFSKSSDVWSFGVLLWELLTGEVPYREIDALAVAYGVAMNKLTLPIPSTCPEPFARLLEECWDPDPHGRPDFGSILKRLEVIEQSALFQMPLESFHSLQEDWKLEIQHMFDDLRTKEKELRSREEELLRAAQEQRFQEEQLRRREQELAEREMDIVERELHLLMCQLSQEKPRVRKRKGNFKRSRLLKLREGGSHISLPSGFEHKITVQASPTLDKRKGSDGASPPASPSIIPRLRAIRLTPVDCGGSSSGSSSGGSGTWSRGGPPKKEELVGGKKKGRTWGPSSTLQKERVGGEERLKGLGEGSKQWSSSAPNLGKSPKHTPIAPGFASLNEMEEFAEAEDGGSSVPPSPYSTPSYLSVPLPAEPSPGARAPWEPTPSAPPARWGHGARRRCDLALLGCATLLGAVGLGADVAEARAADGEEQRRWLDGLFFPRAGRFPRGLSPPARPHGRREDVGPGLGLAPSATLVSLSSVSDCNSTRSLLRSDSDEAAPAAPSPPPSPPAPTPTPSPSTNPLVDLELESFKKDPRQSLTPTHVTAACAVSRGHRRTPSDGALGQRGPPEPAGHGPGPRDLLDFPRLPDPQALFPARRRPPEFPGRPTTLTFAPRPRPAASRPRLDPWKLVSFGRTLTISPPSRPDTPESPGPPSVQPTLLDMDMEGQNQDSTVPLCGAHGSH

`CN(C(=O)CN1CCOCC1)c1ccc2sc3c(-c4cccc5c(=O)cc(N6CC7CCC(C6)O7)oc45)cccc3c2c1` [NU5455] was tested. Which inhibition at 1 µM did it give?
The inhibition at 1 µM was 1.5%.
